Laboratory results: ChEMBL document CHEMBL4507301 (2021)

Experiments:
[1] = test system: Phosphatidylinositol 4,5-bisphosphate 3-kinase catalytic subunit alpha isoform (Homo sapiens), P42336 [I800L]; conditions: Compound concentration 1000.0 nM
[2] = target: Cyclin-dependent kinase-like 1 (Homo sapiens) (UniProt Q00532); conditions: Compound concentration 1000.0 nM
[3] = test system: Mast/stem cell growth factor receptor Kit (Homo sapiens), P10721 [V559D,T670I]; conditions: Compound concentration 1000.0 nM
[4] = target: Insulin receptor-related protein (Homo sapiens) (UniProt P14616); conditions: Compound concentration 1000.0 nM
[5] = target: Proto-oncogene tyrosine-protein kinase ROS (Homo sapiens) (UniProt P08922); conditions: Compound concentration 1000.0 nM
[6] = target: Mitogen-activated protein kinase 7 (Homo sapiens) (UniProt Q13164); conditions: Compound concentration 1000.0 nM
[7] = target: Mitogen-activated protein kinase kinase kinase 14 (Homo sapiens) (UniProt Q99558); conditions: Compound concentration 1000.0 nM
Chain of Mitogen-activated protein kinase kinase kinase 14 (Homo sapiens) (Q99558 whole entry, looked up): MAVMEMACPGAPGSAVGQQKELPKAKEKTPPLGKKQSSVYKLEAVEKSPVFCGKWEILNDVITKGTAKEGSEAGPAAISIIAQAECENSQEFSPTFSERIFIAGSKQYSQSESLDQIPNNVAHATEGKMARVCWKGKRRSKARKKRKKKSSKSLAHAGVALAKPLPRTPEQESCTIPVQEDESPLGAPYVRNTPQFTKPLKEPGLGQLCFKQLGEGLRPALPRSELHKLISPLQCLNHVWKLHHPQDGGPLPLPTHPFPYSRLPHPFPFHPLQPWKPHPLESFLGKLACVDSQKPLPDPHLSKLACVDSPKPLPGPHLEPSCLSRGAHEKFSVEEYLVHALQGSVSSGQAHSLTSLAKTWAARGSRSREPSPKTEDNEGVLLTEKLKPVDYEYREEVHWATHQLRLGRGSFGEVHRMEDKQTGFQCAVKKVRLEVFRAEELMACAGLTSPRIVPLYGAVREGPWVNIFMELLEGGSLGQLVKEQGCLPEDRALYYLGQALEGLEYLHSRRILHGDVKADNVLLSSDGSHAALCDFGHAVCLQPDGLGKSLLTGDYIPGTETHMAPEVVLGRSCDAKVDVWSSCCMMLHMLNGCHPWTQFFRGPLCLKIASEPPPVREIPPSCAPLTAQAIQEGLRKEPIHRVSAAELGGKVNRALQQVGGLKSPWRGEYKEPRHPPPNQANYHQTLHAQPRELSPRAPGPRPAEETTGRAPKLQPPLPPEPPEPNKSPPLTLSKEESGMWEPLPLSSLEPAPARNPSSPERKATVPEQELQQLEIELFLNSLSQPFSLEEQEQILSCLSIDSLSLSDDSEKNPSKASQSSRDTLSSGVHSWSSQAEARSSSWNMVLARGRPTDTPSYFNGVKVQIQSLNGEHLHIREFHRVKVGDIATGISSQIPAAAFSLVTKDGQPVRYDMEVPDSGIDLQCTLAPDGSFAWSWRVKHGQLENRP

[8] = test system: Tyrosine-protein kinase ABL1 (Homo sapiens), P00519 [H396P]; conditions: Compound concentration 1000.0 nM
[9] = target: Protein-tyrosine kinase 2-beta (Homo sapiens) (UniProt Q14289); conditions: Compound concentration 1000.0 nM
[10] = target: Ephrin type-B receptor 2 (Homo sapiens) (UniProt P29323); conditions: Compound concentration 1000.0 nM
[11] = target: Casein kinase I isoform alpha (Homo sapiens) (UniProt P48729); conditions: Compound concentration 1000.0 nM
[12] = target: Membrane-associated tyrosine- and threonine-specific cdc2-inhibitory kinase (Homo sapiens) (UniProt Q99640); conditions: Compound concentration 1000.0 nM
[13] = target: Megakaryocyte-associated tyrosine-protein kinase (Homo sapiens) (UniProt P42679); conditions: Compound concentration 1000.0 nM
[14] = target: Myosin light chain kinase (Homo sapiens) (UniProt Q32MK0); conditions: Compound concentration 1000.0 nM
[15] = target: Ribosomal protein S6 kinase alpha-4 (Homo sapiens) (UniProt O75676); conditions: Compound concentration 1000.0 nM
Chain of Ribosomal protein S6 kinase alpha-4 (Homo sapiens) (O75676 whole entry, looked up): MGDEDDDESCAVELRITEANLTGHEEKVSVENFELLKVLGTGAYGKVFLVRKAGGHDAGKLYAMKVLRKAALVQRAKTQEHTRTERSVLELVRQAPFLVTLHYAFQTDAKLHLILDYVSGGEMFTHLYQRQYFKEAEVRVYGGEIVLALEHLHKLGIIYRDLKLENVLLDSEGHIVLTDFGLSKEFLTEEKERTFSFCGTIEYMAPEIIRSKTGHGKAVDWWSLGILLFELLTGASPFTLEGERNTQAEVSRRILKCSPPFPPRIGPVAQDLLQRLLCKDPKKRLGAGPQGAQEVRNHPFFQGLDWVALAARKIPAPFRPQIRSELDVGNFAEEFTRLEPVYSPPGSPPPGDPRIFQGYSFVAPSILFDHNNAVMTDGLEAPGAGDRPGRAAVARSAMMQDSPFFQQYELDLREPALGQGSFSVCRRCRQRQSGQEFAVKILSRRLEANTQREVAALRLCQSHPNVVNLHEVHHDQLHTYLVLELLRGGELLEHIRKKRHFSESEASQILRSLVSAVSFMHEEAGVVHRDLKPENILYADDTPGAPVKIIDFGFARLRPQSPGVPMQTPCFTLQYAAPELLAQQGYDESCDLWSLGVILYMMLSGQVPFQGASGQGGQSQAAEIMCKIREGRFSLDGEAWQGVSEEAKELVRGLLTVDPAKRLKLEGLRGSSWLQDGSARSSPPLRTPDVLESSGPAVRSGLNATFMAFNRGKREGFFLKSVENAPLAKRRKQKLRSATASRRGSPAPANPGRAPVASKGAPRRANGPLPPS

[16] = target: Myosin light chain kinase 2, skeletal/cardiac muscle (Homo sapiens) (UniProt Q9H1R3); conditions: Compound concentration 1000.0 nM
[17] = target: Phosphatidylinositol 3-kinase C2 domain-containing subunit gamma (Homo sapiens) (UniProt O75747); conditions: Compound concentration 1000.0 nM
[18] = target: Muscarinic acetylcholine receptor M3 (Homo sapiens) (UniProt P20309); conditions: Compound concentration 10.0 uM
[19] = target: Serine/threonine-protein kinase N2 (Homo sapiens) (UniProt Q16513); conditions: Compound concentration 1000.0 nM
[20] = target: Mitogen-activated protein kinase kinase kinase 7 (Homo sapiens) (UniProt O43318); conditions: Compound concentration 1000.0 nM
[21] = target: Death-associated protein kinase 1 (Homo sapiens) (UniProt P53355); conditions: Compound concentration 1000.0 nM
[22] = target: Hepatocyte growth factor receptor (Homo sapiens) (UniProt P08581); conditions: Compound concentration 1000.0 nM
[23] = target: Epidermal growth factor receptor (Homo sapiens) (UniProt P00533); conditions: Compound concentration 1000.0 nM
[24] = target: Mitogen-activated protein kinase 13 (Homo sapiens) (UniProt O15264); conditions: Compound concentration 1000.0 nM
[25] = target: Phosphatidylinositol 5-phosphate 4-kinase type-2 beta (Homo sapiens) (UniProt P78356); conditions: Compound concentration 1000.0 nM
Chain of Phosphatidylinositol 5-phosphate 4-kinase type-2 beta (Homo sapiens) (P78356 whole entry): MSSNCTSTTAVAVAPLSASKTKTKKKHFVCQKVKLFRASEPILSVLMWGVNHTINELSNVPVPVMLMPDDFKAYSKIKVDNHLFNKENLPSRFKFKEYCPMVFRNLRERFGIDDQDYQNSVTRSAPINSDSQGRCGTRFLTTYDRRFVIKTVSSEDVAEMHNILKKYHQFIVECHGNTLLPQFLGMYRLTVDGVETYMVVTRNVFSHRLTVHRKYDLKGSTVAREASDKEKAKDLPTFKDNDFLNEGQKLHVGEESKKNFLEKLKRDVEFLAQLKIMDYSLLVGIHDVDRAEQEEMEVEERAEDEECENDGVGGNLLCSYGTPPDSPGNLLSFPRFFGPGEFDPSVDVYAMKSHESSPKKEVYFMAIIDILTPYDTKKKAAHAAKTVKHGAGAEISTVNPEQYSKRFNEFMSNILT

[26] = target: Microtubule-associated serine/threonine-protein kinase 1 (Homo sapiens) (UniProt Q9Y2H9); conditions: Compound concentration 1000.0 nM
[27] = target: Serine/threonine-protein kinase PLK1 (Homo sapiens) (UniProt P53350); conditions: Compound concentration 1000.0 nM
[28] = target: Mitogen-activated protein kinase kinase kinase kinase 1 (Homo sapiens) (UniProt Q92918); conditions: Compound concentration 1000.0 nM
[29] = target: Ephrin type-A receptor 1 (Homo sapiens) (UniProt P21709); conditions: Compound concentration 1000.0 nM
[30] = target: Casein kinase II subunit alpha' (Homo sapiens) (UniProt P19784); conditions: Compound concentration 1000.0 nM
[31] = test system: Proto-oncogene tyrosine-protein kinase receptor Ret (Homo sapiens), P07949 [M918T]; conditions: Compound concentration 1000.0 nM
[32] = target: Serine/threonine-protein kinase MARK1 (Homo sapiens) (UniProt Q9P0L2); conditions: Compound concentration 1000.0 nM
[33] = target: Tyrosine-protein kinase JAK2 (Homo sapiens) (UniProt O60674); conditions: Compound concentration 1000.0 nM
[34] = target: Cyclin-dependent kinase 4 (Homo sapiens) (UniProt P11802); conditions: Compound concentration 1000.0 nM
Chain of Cyclin-dependent kinase 4 (Homo sapiens) (P11802 whole entry): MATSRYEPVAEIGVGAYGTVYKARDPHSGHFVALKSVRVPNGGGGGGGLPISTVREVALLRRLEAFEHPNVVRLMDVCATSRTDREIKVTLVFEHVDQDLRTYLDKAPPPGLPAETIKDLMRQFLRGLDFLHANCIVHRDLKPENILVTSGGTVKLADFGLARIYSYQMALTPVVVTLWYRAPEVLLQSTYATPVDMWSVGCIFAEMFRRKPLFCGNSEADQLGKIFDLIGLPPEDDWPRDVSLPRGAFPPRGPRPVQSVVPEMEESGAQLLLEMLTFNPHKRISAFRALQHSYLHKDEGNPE

[35] = target: Ribosomal protein S6 kinase alpha-4 (Homo sapiens) (UniProt O75676); conditions: Compound concentration 1000.0 nM; remark: listed apart in the source
[36] = target: Serine/threonine-protein kinase PAK 6 (Homo sapiens) (UniProt Q9NQU5); conditions: Compound concentration 1000.0 nM
[37] = target: Calcium/calmodulin-dependent protein kinase type 1G (Homo sapiens) (UniProt Q96NX5); conditions: Compound concentration 1000.0 nM
Chain of Calcium/calmodulin-dependent protein kinase type 1G (Homo sapiens) (Q96NX5 whole entry): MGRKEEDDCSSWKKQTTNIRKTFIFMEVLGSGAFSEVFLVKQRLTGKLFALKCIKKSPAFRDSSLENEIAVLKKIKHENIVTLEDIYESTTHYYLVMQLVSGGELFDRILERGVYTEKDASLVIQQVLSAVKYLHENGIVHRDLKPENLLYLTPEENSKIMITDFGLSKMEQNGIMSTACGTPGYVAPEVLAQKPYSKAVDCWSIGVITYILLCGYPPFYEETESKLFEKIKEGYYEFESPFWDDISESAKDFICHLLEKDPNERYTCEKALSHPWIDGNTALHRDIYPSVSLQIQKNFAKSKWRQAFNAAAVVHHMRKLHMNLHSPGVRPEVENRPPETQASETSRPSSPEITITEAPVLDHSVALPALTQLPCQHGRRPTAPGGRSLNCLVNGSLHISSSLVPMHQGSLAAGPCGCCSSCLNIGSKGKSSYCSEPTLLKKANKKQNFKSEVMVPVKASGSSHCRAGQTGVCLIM

[38] = target: Serine/threonine-protein kinase PAK 2 (Homo sapiens) (UniProt Q13177); conditions: Compound concentration 1000.0 nM
Chain of Serine/threonine-protein kinase PAK 2 (Homo sapiens) (Q13177 whole entry): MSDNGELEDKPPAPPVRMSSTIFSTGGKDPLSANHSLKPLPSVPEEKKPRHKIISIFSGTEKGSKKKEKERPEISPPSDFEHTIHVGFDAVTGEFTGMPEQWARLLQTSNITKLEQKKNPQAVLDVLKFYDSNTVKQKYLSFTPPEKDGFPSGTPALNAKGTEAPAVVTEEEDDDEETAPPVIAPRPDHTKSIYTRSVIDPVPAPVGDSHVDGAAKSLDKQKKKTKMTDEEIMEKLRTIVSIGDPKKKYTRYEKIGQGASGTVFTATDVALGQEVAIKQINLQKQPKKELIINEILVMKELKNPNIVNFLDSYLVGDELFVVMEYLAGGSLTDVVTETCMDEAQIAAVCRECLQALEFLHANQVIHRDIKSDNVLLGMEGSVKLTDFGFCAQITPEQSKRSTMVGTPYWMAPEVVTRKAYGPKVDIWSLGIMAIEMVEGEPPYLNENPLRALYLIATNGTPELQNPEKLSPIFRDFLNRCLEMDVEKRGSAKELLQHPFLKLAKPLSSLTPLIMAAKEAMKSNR

[39] = target: Dual specificity tyrosine-phosphorylation-regulated kinase 2 (Homo sapiens) (UniProt Q92630); conditions: Compound concentration 1000.0 nM
[40] = test system: ALK tyrosine kinase receptor (Homo sapiens), Q9UM73 [L1196M]; conditions: Compound concentration 1000.0 nM
Chain of ALK tyrosine kinase receptor (Homo sapiens), Q9UM73 [L1196M] (Q9UM73 whole entry L1196M, looked up): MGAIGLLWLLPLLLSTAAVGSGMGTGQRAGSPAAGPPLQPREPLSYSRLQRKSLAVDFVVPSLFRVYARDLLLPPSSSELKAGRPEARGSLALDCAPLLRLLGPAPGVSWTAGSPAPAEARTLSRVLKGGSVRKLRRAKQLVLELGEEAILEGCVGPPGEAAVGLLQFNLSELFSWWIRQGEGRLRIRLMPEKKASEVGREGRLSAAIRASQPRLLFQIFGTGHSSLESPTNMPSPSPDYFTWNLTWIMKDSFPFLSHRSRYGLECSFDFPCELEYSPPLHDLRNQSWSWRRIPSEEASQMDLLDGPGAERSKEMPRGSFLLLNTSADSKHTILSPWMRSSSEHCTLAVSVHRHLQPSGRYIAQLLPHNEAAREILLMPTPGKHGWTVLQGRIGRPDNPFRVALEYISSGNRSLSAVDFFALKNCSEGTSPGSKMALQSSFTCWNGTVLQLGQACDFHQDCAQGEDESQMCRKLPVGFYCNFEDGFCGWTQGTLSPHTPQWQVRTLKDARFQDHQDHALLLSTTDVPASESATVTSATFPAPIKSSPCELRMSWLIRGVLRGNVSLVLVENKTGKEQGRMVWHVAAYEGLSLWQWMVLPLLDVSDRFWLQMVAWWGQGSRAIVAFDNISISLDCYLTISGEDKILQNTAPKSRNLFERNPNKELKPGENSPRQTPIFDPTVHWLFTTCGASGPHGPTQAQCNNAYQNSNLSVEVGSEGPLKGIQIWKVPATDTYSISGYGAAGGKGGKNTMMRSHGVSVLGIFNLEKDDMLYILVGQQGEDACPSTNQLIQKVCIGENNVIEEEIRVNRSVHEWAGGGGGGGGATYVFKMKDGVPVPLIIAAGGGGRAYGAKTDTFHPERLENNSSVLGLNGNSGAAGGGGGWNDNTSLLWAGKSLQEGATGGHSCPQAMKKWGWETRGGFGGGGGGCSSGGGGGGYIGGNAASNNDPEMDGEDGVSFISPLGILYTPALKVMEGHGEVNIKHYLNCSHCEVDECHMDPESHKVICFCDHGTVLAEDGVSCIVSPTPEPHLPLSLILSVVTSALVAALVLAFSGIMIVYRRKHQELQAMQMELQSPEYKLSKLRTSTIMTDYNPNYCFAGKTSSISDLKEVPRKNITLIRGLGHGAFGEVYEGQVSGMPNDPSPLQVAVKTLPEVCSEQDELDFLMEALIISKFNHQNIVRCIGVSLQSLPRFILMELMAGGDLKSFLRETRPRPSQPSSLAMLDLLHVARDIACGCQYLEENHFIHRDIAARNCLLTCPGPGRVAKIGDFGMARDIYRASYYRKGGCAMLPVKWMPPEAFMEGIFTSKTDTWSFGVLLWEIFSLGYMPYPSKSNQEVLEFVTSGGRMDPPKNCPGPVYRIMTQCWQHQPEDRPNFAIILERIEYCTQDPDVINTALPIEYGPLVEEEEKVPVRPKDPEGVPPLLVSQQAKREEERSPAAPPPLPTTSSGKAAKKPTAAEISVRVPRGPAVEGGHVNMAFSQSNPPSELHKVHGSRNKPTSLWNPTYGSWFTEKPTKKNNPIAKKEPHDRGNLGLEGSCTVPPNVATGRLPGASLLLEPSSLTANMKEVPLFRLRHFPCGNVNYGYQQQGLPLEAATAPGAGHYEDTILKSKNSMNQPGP

[41] = test system: Tyrosine-protein kinase ABL1 (Homo sapiens), P00519 [F317I]; conditions: Compound concentration 1000.0 nM
[42] = test system: Receptor-type tyrosine-protein kinase FLT3 (Homo sapiens), P36888 [UNDEFINED MUTATION]; conditions: Compound concentration 1000.0 nM
[43] = target: Serine/threonine-protein kinase 17B (Homo sapiens) (UniProt O94768); conditions: Compound concentration 1000.0 nM
[44] = target: Serine/threonine-protein kinase 24 (Homo sapiens) (UniProt Q9Y6E0); conditions: Compound concentration 1000.0 nM
[45] = target: Tyrosine-protein kinase ZAP-70 (Homo sapiens) (UniProt P43403); conditions: Compound concentration 1000.0 nM

C[C@H](c1cccc(C#N)c1)n1cc(Cl)cc(C(N)=O)c1=N [(R)-9s]
inactive: residual activity [1] 56% | residual activity [2] 98% | residual activity [3] 100% | residual activity [4] 100% | residual activity [5] 100% | residual activity [6] 88% | residual activity [7] 62% | residual activity [8] 79% | residual activity [9] 100% | residual activity [10] 66% | residual activity [11] 86% | residual activity [12] 100% | residual activity [13] 100% | residual activity [14] 94% | residual activity [15] 100% | residual activity [16] 100% | residual activity [17] 88% | inhibition [18] -8.15% | residual activity [19] 100% | residual activity [20] 77% | residual activity [21] 100% | residual activity [22] 100% | residual activity [23] 100% | residual activity [24] 100% | residual activity [25] 52% | residual activity [26] 96% | residual activity [27] 89% | residual activity [28] 100% | residual activity [29] 97% | residual activity [30] 100% | residual activity [31] 91% | residual activity [32] 97% | residual activity [33] 100% | residual activity [34] 96% | residual activity [35] 69% | residual activity [36] 100% | residual activity [37] 100% | residual activity [38] 100% | residual activity [39] 84% | residual activity [40] 76% | residual activity [41] 85% | residual activity [42] 100% | residual activity [43] 73% | residual activity [44] 89% | residual activity [45] 92%

C[C@@H](c1cccc(C#N)c1)n1cc(Cl)cc(C(N)=O)c1=N [(S)-9s]
inactive: residual activity [1] 71% | residual activity [2] 100% | residual activity [3] 100% | residual activity [4] 100% | residual activity [5] 100% | residual activity [6] 88% | residual activity [7] 93% | residual activity [8] 76% | residual activity [9] 87% | residual activity [10] 80% | residual activity [11] 81% | residual activity [12] 100% | residual activity [13] 100% | residual activity [14] 98% | residual activity [15] 100% | residual activity [16] 100% | residual activity [17] 84% | inhibition [18] -6.17% | residual activity [19] 100% | residual activity [20] 100% | residual activity [21] 100% | residual activity [22] 93% | residual activity [23] 100% | residual activity [24] 98% | residual activity [25] 73% | residual activity [26] 100% | residual activity [27] 98% | residual activity [28] 96% | residual activity [29] 77% | residual activity [30] 100% | residual activity [31] 100% | residual activity [32] 100% | residual activity [33] 100% | residual activity [34] 91% | residual activity [35] 80% | residual activity [36] 86% | residual activity [37] 100% | residual activity [38] 96% | residual activity [39] 98% | residual activity [40] 82% | residual activity [41] 76% | residual activity [42] 96% | residual activity [43] 72% | residual activity [44] 100% | residual activity [45] 84%
